Where a name gives a salt, the structure may show the parent alone. Marks after values point to notes of the source that are not given here. Non-standard residues stand in square brackets, D forms with d. Residues, ends and D or L forms follow the SMILES beside them. No end group written: not given here. *: point of attachment. X5 = [N-]=[N+]=N[C@@H](CCCCCN)C(=O)*; X2 = C[C@@H](CCC[N+](C)(C)C)C(=O)*; Tle = CC(C)(C)[C@H](N)C(=O)O; hLys = NCCCCC[C@H](N)C(=O)O; X1 = C[C@@H](CCCCCN)C(=O)*; Orn = NCCC[C@H](N)C(=O)O
Key:
NTR-1 = NTR-1 (Homo sapiens, UniProt P30989); assay: Competitive NTR binding versus radiolabeled NT[8-13]
NTR-1, sequence (P30989 whole entry, species assumed): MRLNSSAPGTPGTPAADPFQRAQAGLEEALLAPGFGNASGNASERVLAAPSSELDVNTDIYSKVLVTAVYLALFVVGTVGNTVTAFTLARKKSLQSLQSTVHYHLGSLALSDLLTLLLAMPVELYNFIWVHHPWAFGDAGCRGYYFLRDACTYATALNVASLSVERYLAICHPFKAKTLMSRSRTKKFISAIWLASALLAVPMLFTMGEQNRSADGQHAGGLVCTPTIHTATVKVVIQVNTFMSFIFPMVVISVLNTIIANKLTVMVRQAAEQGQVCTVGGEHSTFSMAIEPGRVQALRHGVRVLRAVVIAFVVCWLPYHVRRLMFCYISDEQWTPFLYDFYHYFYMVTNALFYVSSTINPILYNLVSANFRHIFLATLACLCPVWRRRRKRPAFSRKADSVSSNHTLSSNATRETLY

NTR-2 = NTR-2 (Homo sapiens, UniProt O95665); assay: as above
NTR-2, sequence (O95665 whole entry, species assumed): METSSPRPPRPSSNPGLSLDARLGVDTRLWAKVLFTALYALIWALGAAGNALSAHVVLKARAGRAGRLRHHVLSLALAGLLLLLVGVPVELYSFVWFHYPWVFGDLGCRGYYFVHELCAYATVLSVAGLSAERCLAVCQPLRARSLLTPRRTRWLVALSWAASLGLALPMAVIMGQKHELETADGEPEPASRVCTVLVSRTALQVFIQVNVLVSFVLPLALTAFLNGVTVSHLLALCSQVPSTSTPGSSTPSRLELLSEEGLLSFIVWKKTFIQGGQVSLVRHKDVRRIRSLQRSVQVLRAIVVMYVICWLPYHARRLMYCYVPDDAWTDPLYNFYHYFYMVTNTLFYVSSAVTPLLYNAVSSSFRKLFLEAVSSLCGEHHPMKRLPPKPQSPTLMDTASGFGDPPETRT

rats [1] = assay: Clinical observation after high IV or PO dose; assay type: in vivo, rat
Description: During the 2 and 24 hour post-dosing clinical observation periods, measurements of core body temperatures were taken.

[2] = Brain distribution of ABS201 (LC/MS/MS)
Excerpt: (§1) At selected time points, blood was removed or brain harvested and the concentration of the peptide analog determined using LC/MS/MS.
(§2) These samples were then used for the determination of plasma and brain drug levels by LC/MS/MS for estimating BBB penetration and pharmacokinetic parameters.

[3] = Pharmacokinetics of ABS201 in blood/plasma (LC/MS/MS); conditions: SD, rat, in vivo, iv, 100 mg/kg
Excerpt: as §1, §2

[4] = Pharmacokinetics of ABS212 in plasma (LC/MS/MS); assay type: in vivo, rat
Excerpt: These samples were used for the determination of plasma parent drug concentrations by LC/MS/MS for estimating pharmacokinetic parameters and oral bioavailability.

rats [5] = assay: Catalepsy, horizontal bar test; conditions: IP 1 mg/kg, cut-off 30 sec
Description: (§3) Cataleptic Analysis. […] To circumvent these potential confounding factors, tests are performed on an animal only once in a quiet, controlled environment.
(§4) Catalepsy Assessment. […] Rats were given an IP injection of peptide (5 mg/Kg), saline, or haloperidol (1 mg/kg). After 3 hours, catalepsy was measured using the horizontal bar test. Briefly, the front paws were placed directly on a horizontal bar 5 mm in diameter placed 7.5 cm above the cage floor. The rat was held in this position for 3 sec and then released. The time from release until the paws return to the cage floor was measured and recorded. A cut-off time of 30 sec was observed; this indicated a fully cataleptic animal as cataleptic animals are frozen to the bar. […] Measures were repeated every 30 min for 4 hr. Data are means±SEM (p<0.01).

rats [6] = assay: Tail flick assay; assay type: in vivo, rat; conditions: ABS212 10 mg/kg, Morphine 5 mg/kg
Description: The Tail Flick Assay. Each of 6 rats per experiment were placed in a Plexiglas restraint box. A standard laboratory hot water bath was maintained at 49° C. The distal 3 cm of the rat's tail was submerged into the water, and the time from insertion to tail flick or removal of tail from the water was recorded. Animals are removed immediate4ly at the cutoff latency of 10 seconds. MPEs were calculated, with a MPE of 100% corresponding to the rat's tail remaining in the water bath for 10 seconds. This was repeated 3 times. The tail was dried and allowed to rest for 20 seconds between trials. The rat was then given the appropriate amount of peptide and the experiment repeated at 30 and 60 minutes. Treatment conditions were distributed over the study in a counterbalanced design to control for such factors as calendar period and order of dosing. N=6 or greater for all experiments.

rats [7] = assay: Formalin assay; assay type: in vivo, rat; conditions: ABS212 10 mg/kg, Morphine 5 mg/kg
Description: Formalin Assay. […] Animals were scored every minute on the following scale: 0=forepaw flat on floor, 1=forepaw just touching floor, 2=forepaw held up off of floor, and 3=forepaw licked or bitten. […] The animals were immediately be placed into the observation cages, and their behavior recorded over the following 30 minutes. After each experiment, rats were euthanized with CO2 followed by cervical dislocation. An average Pain Rating over time versus the baseline and formalin-only controls for each peptide tested were plotted, and statistical analysis were performed using a one-way analysis of variance (ANOVA). Differences were considered statistically significant at the 5% confidence interval. N=6 or greater for all experiments.

rats [8] = conditions: rat, in vivo
Description: as §3, §4

rats [9] = assay: d-Amphetamine induced hyperlocomotion / locomotor activity chambers; assay type: in vivo, rat; conditions: rat, in vivo
Excerpt: Sound- and light-attenuated locomotor cages are used to measure the ability of potential candidates to decrease d-amphetamine-induced hyperactivity.
d-Amphetamine induced hyperlocomotion. Experimentally I male Sprague-Dawley rats were housed as described above. Rats were handled for three days prior to testing to minimize experimenter induced hyperlocomotion on test day. For experiments, sound- and light-attenuated automated photocell beam activity chambers (AccuScan Instruments, Inc., Columbus, Ohio) were used to measure locomotion. Cages were connected to a VersaMax Analyzer (AccuScan) in conjunction with an IBM computer using VersaMax 1.80-0146 software (AccuScan) to record vertical and horizontal activity. Total activity values recorded were the sum of vertical and horizontal activity. […]
Rats were placed in the activity chambers for 30 minutes to habituate and establish baseline activity levels. Then, rats were removed and given an IP or oral dose of peptide (N=7) or saline (N=8) and returned to the chamber to establish the peptide's effect on spontaneous activity levels. About 30 minutes after administration, rats were removed and given an IP injection of d-amphetamine (1 mg/kg) or vehicle and returned to the chamber for a further 1 hr to assess the effect of the peptide on induced hyperlocomotion.
Chronic Testing Protocols.
Separate two-factor ANOVAs for DOSE X TIME were performed for each different time-phase of the assay. Phases for the IP dosing and oral dosing experiments consisted of habituation (time points 10-60), drug (time points 70-120), and amphetamine (time points 130-240).

rats [10] = assay: Induced hypothermia (rectal temperature) after IP or oral administration; conditions: IP 5 mg/kg, Table 5
Description: Hypothermia as a Preliminary Screen of CNS Activity.
Animal Restraint. Rats were restrained in Plas-Labs® plastic cages fitted with wooden dowels to restrict movement. Rectal temperature probes (Physitemp®, RET-2, Clifton, N.J.), lubricated with mineral oil, were inserted into the rectum of each animal. Probes were connected to a microprobe thermometer (Physitemp®, BAT-12) in conjunction with a thermocouple selector (Physitemp®, SWT-5). Rats were allowed to acclimate to the cages for 1 hr prior to IP injection.
Peptide Preparation. […] For oral administration, the test article was administered directly into the animals' stomach by gavaging. Controls involved the administration of 0.9% NaCl. Thus, peptides were dissolved in saline, and following the equilibration period, rats were given an IP injection of peptide (5 mg/kg) or saline (1 mL/kg). […]
Hypothermia. […] For each rat, a thermistor probe was placed 4.5 cm into the rectum; baseline temperatures were recorded for 1 hr to allow habituation to the cages prior to injection of compound. […]
The former activity is most easily monitored by measuring the extent of induced hypothermia (core body temperature loss), which is a measure of NTR-1 binding and agonism and thus antipsychotic activity. Hypothermia is followed routinely over time through insertion of a thermometer probe hooked up to a digital readout box into the anus of the rats.

rats [11] = assay: Hotplate assay; assay type: in vivo, rat; conditions: for MPE (I.P.) / Tmax (I.P.) of % MPE / MPE (oral) / Tmax (Oral) of % MPE: hotplate; for MPE (I.P.) / Tmax (I.P.) of % MPE: IP at 10 mg/kg; for MPE (oral) / Tmax (Oral) of % MPE: orally at 20 mg/kg
Excerpt: Animals. Experimentally naïve male Sprague-Dawley rats from Charles River Laboratories, Raleigh, N.C. (230-260 g) or Harlan, Prattville Ala. (240-280 g), were maintained 4 per cage in animal quarters on a regular light/dark cycle (lights on 0600-1800) with ad libitum food and water for approximately 1 week before the experiment. The range of body weights on the 2 days of testing was 230-260 grams. The experiment was done on one day, with animals allowed to recover for three days before experiments are repeated.
Peptide Preparation. Test articles are prepared at the desired concentration in saline for either IP injection or gavage administration with N=6 for each dose and vehicle. Morphine (5 mg/kg) is used as a control for certain protocols. […] Apomorphine HCl (Sigma-Aldrich, St. Louis, Mo.) was dissolved in distilled water at a concentration of 5 mg/mL within 40 minutes of administration for injection at 1 mL/kg S.C. to give a dose of 5 mg/kg. When complete ED50s are determined, dosing range of the peptide will be 10, 3, 1, 0.3, 0.1 of the estimated ED50, covering two log orders of range.
The Hotplate Assay. The hotplate assay, a standard rat model for […] pain (see Le Bars et al., Pharmacol. Rev. 53: 597-652 (2001) and Chapman et al., Pain 22:1-31 (2002)), was performed as follows. A hotplate maintained at 52° C. to 53° C. was enclosed on four sides in a plexiglass chamber that extended 6 in. above the plate. Animals were placed on the plate, and the latency between the time a rat was placed on the surface and when it lifts or licks a back paw (indicative of pain sensation) was determined. Animals are removed immediately at the cutoff latency of 30 seconds. Assays are scored as the percent of maximal possible effect (% MPE) defined as 100%, which corresponds to the rats remaining on the hotplate for 30 seconds without responding. Thus, % MPE are calculated using the following equation: % MPE=[(post-drug latency−pre-drug latency)/(cut-off pre-drug latency)]×100%. N=6 or greater for all experiments.
Tmax indicates the time after dosing in which a maximum response was observed.

Compound: CC(C)C[C@H](NC(=O)[C@@H](NC(=O)[C@H](Cc1ccc(O)cc1)NC(=O)[C@@H]1CCCN1C(=O)[C@H](CCCNC(=N)N)NC(=O)[C@H](CCCCCN)N=[N+]=[N-])C(C)(C)C)C(=O)O [ABS13, N3-L-homolysine-Arg-Pro-Tyr-tertLeu-Leu-COOH] (X5-RPY[Tle]L-OH)
- IC50 (NTR-1): 5.7 ± 0.37 nM
- IC50 (NTR-2): 11.1 ± 0.1 nM

Compound: CC(C)C[C@H](NC(=O)[C@@H](NC(=O)[C@H](Cc1ccc(O)cc1)NC(=O)[C@@H]1CCCN1C(=O)[C@H](CCCNC(=N)N)NC(=O)[C@@H](C)CCCCCN)C(C)(C)C)C(=O)O [ABS201 HCl] (X1-RPY[Tle]L-OH)
- clinical observation 24 hour post-dosing (rats [1]; IV 50 mg/kg): grossly normal; hypothermia was absent
- clinical observation immediately after dosing (rats [1]; IV 50 mg/kg): obviously sedated
- clinical observation two hour post-dosing (rats [1]; IV 50 mg/kg): marked hypothermia was present
- clinical observation (rats [1]; PO 250 mg/kg): grossly normal at all time points

Compound: CC(C)C[C@H](NC(=O)[C@@H](NC(=O)[C@H](Cc1ccc(O)cc1)NC(=O)[C@@H]1CCCN1C(=O)[C@H](CCCNC(=N)N)NC(=O)[C@@H](C)CCCCCN)C(C)(C)C)C(=O)O [ABS201.2HCl] (X1-RPY[Tle]L-OH)
- AUC0-t in brain ([2]; 15 min intravenous infusion 100 mg/kg): 60.96 ng·h/g
- Cmax ([2]; SD, rat, brain, iv, 100 mg/kg): 32.9 ng/g
- half-life ([2]; SD, rat, brain, iv, 100 mg/kg): 4.85 h
- Vd [3]: 16.1 L/kg
- clearance [3]: 22.8 L/h/kg

Compound: CC(C)C[C@H](NC(=O)[C@@H](NC(=O)[C@H](Cc1ccc(O)cc1)NC(=O)[C@@H]1CCCN1C(=O)[C@H](CCCNC(=N)N)NC(=O)[C@@H](C)CCC[N+](C)(C)C)C(C)(C)C)C(=O)O [ABS-212.2HCL] (X2-RPY[Tle]L-OH)
- clearance as % of rat hepatic blood flow ([4]; IV bolus 1 mg/kg): 32.33%
- clearance as % of rat hepatic blood flow ([4]; IV bolus 5 mg/kg): 12.08%
- clearance as % of rat hepatic blood flow ([4]; IV bolus […]): 12.08%

Compound: O=C(CCCN1CCC(O)(c2ccc(Cl)cc2)CC1)c1ccc(F)cc1 [Haloperidol, reference compound]
- duration of catalepsy (rats [5]): greater than 30 sec

Compound: CN1CC[C@]23c4c5ccc(O)c4O[C@H]2[C@@H](O)C=C[C@H]3[C@H]1C5 [Morphine, reference compound]
- MPE (0 min) (rats [6]): 0.03 +/− 0.05
- MPE (30 min) (rats [6]): 63.7 +/− 41.9
- MPE (60 min) (rats [6]): 67.5 +/− 25.8
- analgesic effect over the time course (rats [7]): loses activity after 30 minutes

Compound: CC[C@H](C)[C@H](NC(=O)[C@H](Cc1ccc(O)cc1)NC(=O)[C@@H]1CCCN1C(=O)[C@H](CCCNC(=N)N)NC(=O)[C@@H](N)CCCNC(=N)N)C(=O)N[C@@H](CC(C)C)C(=O)O [NT(8-13), NH2-Arg-Arg-Pro-Tyr-Ile-Leu-COOH, reference compound]
- catalepsy (rats [8]): No
- Hyperlocomotion Inhibition (routes of administration) (rats [9]): CNS administration
- Inhibits locomotor activity (routes of administration) (rats [9]): CNS administration
- tmax (min) Time to maximal temperature decrease (rats [10]): 90 min
- Δ in BT (° C.) Decrease in body temperature measured at tmax (rats [10]): −0.45 ± 0.17^d ° C.

Compound: Arg-Arg-Pro-Tyr-t-Leu-Leu [ABS213]
- MPE (I.P.) (rats [11]): 48%
- Tmax (I.P.) of % MPE (rats [11]): 30

Compound: Arg-Arg-Pro-Tyr-tLeu-Leu [ABS237]
- MPE (I.P.) (rats [11]): 50%
- Tmax (I.P.) of % MPE (rats [11]): 30

Compound: Boc-Arg-Pro-Tyr-t-Leu-Leu [ABS700]
- MPE (I.P.) (rats [11]): 51%
- Tmax (I.P.) of % MPE (rats [11]): 90

Compound: KRPY[Tle]L [ABS229]
- MPE (I.P.) (rats [11]): 48%
- Tmax (I.P.) of % MPE (rats [11]): 60

Compound: Lys-Arg-Pro-Tyr-t-Leu-Leu [ABS205]
- analgesic effect relative to ABS212 (rats [11]; gavage 20 mg/kg): as much or more active than ABS212
- MPE (I.P.) (rats [11]): 86%
- Tmax (I.P.) of % MPE (rats [11]): 15-30
- MPE (oral) (rats [11]): 66%
- Tmax (Oral) of % MPE (rats [11]): 30

Compound: Orn-Arg-Pro-Tyr-t-Leu-Leu [ABS209]
- MPE (I.P.) (rats [11]): 89%
- Tmax (I.P.) of % MPE (rats [11]): 60

Compound: [Orn]RPY[Tle]L [ABS233]
- MPE (I.P.) (rats [11]): 51%
- Tmax (I.P.) of % MPE (rats [11]): 45

Compound: [hLys]RPY[Tle]L [ABS225]
- MPE (I.P.) (rats [11]): 100%
- Tmax (I.P.) of % MPE (rats [11]): 15-45
- MPE (oral) (rats [11]): 38%
- Tmax (Oral) of % MPE (rats [11]): 30

From patent US20100130432A1, “Non-Natural Amino Acids and Neurotensin Analogues Thereof” (priority 2005, published 2010)
